The source of these data is paper PMC8661056, “Synthesis and Evaluation of [^11C]7-Halogen-2-Phenyl Isoindolone Derivatives: Potential PET Radioligands for in vivo Imaging of 5-HT2C Receptors” (Frontiers in Neuroscience, 2021).

Bounds are passed on as bounds.

The target of data set [1] is T1, 5-HT2C (Homo sapiens, UniProt P28335).
T1 sequence (P28335 33-458): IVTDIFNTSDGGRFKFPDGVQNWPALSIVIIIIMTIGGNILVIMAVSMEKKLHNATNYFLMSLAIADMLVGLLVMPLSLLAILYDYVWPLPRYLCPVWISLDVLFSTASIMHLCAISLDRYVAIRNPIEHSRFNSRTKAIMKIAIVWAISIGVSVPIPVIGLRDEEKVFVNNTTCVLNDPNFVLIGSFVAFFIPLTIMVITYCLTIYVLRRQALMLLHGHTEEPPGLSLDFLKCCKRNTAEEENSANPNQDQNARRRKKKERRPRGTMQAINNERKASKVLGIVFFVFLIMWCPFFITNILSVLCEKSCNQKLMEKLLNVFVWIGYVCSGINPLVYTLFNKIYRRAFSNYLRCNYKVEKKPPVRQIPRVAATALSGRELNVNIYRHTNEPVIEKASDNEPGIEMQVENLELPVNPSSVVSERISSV
Kind of data set: 5-HT2C competition binding assay with [^3H]mesulergine (NIMH PDSP). The text has this:
(§1) We selected 6 and 9 for carbon-11 radiolabelling and PET imaging studies.

The target of data set [2] is T2, 5-HT2A (Homo sapiens, UniProt P28223). Kind of data set: competition binding assay (NIMH PDSP), 5-HT2A. The note with it: read-out: Binding affinity Ki, 5-HT2A.
The target of data set [3] is 5-HT2B (Homo sapiens, UniProt P41595). Description: competition binding assay (NIMH PDSP), 5-HT2B. The note with it: mean of three experiments ± SD, read-out: Binding affinity Ki, 5-HT2B.
Data set [4] has as its target T3, 5-HT1A (Homo sapiens, UniProt P08908).
T3 sequence (P08908 1-422): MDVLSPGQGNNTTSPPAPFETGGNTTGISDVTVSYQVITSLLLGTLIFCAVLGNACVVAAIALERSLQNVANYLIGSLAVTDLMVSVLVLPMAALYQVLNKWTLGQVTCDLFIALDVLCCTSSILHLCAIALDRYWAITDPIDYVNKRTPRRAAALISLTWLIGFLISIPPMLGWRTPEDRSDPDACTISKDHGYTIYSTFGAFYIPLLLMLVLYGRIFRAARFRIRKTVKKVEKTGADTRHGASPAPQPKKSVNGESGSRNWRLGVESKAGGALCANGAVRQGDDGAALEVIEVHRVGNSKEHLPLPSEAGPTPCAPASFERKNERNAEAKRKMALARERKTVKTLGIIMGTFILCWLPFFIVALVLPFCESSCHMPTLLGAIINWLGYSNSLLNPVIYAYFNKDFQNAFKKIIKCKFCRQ
Kind of data set: competition binding assay (NIMH PDSP), 5-HT1A. The note with it: read-out: Binding affinity Ki, 5-HT1A.

Data set [5] addresses 5-HT5–7. Description: competition binding assay (NIMH PDSP), 5-HT5–7. The note with it: read-out: Binding affinity Ki, 5-HT5–7.
Data set [6] addresses D1-D5. Description: competition binding assay (NIMH PDSP), dopamine D1-D5. The note with it: read-out: Binding affinity Ki, D1-D5.
The target of data set [7] is T2, 5-HT2A. Description: primary binding, 5-HT2A.
Source text: as §1

Details of data set [8]: method as in Hamprecht et al., 2007. The note with it: ref Hamprecht et al., 2007; cited from earlier work.
A short description of data set [9]: solubility in the injection form. Type of data set: physicochemical. The note with it: 10% ethanol in saline. The procedure: To test specific binding of [^11C]6 and [^11C]9 to the choroid plexus and hippocampus, an in vivo microPET blocking study was performed with 0.1 mg/kg SB-242084 30 min prior to injection, respectively. Unfortunately, due to the unexpected low solubility of SB-242084 in the injection form (10% ethanol in saline), the administered SB-242084 in soluble form to the monkeys was likely much less than the target 0.1 mg/kg. As a result, the uptake of [^11C]6 and [^11C]9 in the choroid plexus and hippocampus was still present.

For data set [10], the target named is 5-HT2CR. The note with it: no reference given; cited from earlier work.
Data set [11] addresses 5HT2AR. Also on record: method as in Finnema et al., 2014. The note with it: ref Finnema et al., 2014; cited from earlier work.
In data set [12] the target is 5HT2CR. Also on record: method as in Finnema et al., 2014. The note with it: ref Finnema et al., 2014; cited from earlier work.
Data set [13] relates to 5-HT2CR. Also on record: method as in Kim et al., 2017. The note with it: rat brain; ref Kim et al., 2017; cited from earlier work.

T2 sequence (P28223 whole entry, species assumed): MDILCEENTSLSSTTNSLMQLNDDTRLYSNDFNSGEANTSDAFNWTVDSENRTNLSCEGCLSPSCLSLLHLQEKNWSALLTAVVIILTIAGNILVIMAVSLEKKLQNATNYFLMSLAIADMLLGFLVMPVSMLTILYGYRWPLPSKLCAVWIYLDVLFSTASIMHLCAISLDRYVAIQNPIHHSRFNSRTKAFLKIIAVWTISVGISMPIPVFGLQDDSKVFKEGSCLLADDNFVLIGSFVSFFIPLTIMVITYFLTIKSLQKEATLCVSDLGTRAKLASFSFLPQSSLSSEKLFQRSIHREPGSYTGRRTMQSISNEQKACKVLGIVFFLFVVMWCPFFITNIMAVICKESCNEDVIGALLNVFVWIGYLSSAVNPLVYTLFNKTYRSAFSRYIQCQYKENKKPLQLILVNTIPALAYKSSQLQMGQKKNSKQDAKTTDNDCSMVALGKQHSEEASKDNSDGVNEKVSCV
Sequence of 5-HT2B (P41595 whole entry, species assumed): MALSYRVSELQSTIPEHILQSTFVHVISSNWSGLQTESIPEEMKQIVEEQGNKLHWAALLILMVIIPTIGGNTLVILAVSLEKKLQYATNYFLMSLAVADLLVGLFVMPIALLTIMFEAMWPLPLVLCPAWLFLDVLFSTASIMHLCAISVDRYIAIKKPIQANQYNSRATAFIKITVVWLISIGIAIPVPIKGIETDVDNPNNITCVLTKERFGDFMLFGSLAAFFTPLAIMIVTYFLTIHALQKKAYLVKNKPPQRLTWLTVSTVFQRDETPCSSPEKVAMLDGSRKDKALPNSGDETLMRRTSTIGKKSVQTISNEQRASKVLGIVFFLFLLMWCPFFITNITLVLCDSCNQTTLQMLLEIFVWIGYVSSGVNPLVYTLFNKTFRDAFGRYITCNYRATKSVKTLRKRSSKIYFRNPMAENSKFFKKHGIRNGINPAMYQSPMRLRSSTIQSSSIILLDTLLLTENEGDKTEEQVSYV

For the molecule `COc1ccc(N2Cc3cccc(Br)c3C2=O)cc1OCCN1CCC(C)CC1` [Compound 7], the Ki (commonly the dissociation constant of the complex between target and ligand, obtained from inhibition or displacement) in data set [1] (competition with [^3H]mesulergine, mean of three experiments ± SD, read-out: Binding affinity Ki, 5-HT2C) is 2.9 ± 0.7 nM; in data set [2], greater than 1000 nM; in [3], 177 ± 75 nM; in data set [4], greater than 1000 nM; in [5], greater than 1000 nM; in data set [6], greater than 1000 nM. Besides, the “5-HT2C binding less than that for 9” value in [1] (relative to compound 9) is recorded as 2–3 times. For the same molecule, in data set [7], the “primary bindings at 5-HT2A” value was less than 50%. The “brain permeability as measured by brain to blood plasma ratio” value in data set [8] is reported as “great”.

`Cc1cc2c(cc1Cl)N(C(=O)Nc1ccc(Oc3cccnc3C)nc1)CC2` [SB-242084]: the “solubility in the injection form” value in data set [9] is “low”. The inhibition constant Ki in data set [10] is 3.6 nM.

On to `COc1cc(CCNCc2ccccc2O[11CH3])c(OC)cc1Br` [[^11C]Cimbi-36], for which the inhibitory constant (Ki) in [11] is 0.5 nM; in data set [12] it was 1.7 nM.

`C[C@H](Cc1cccc([18F])c1)Oc1nc(N2CCNC[C@H]2C)ncc1F` [[^18F]4, [^18F]4-(3-Fluorophenethoxy)pyrimidine]: the “ratios of uptake in regions of interest to cerebellum” value in [13] was “low to moderate”.
